Laboratory results: paper PMC12395807, “Chemoreceptor family in plant-associated bacteria responds preferentially to the plant signal molecule glycerol 3-phosphate” (Genome Biology, 2025)

Tests used:
R4 LBD (WP_158281851.1) = test: Thermal shift ligand screening of R4; type: binding, Rivicola pingtungensis; conditions: thermal shift assay, R4, arrays PM1, PM2A, PM3B, PM4A
Description: (§1) Assays were carried out on a MyIQ2 Real-Time PCR instrument (Bio-Rad, Hercules, CA, USA). Ligand solutions were prepared by dissolving the array compounds in 50 µL of Milli-Q water, which, according to the manufacturer, corresponds to a concentration of 10–20 mM. Freshly purified proteins were dialyzed into analysis buffer (Additional file 2: Table S4). Compound arrays PM1, PM2A (carbon sources), PM3B (nitrogen sources), and PM4A (phosphorus and sulfur sources) from Biolog (https://www.biolog.com/) were used. The compositions of these arrays are provided in Additional file 2: Table S1. The experiments were conducted in 96-well plates, and each assay mixture contained 20 µL of the dialyzed protein (at 80–50 µM), 2 µL of 5 × SYPRO orange (Life Technologies, Eugene, Oregon, USA), and 2.5 µL of the resuspended array compound or the equivalent amount of buffer in the ligand-free control. The samples were heated from 23 to 85 °C at a scan rate of 1 °C/min. The protein unfolding curves were monitored by detecting changes in SYPRO® Orange fluorescence. The Tm values were determined from the first derivative values of the raw fluorescence data.

R3 LBD (WP_006464688.1) = test: Thermal shift ligand screening of R3; type: binding, Herbaspirillum frisingense; conditions: thermal shift assay, R3, arrays PM1, PM2A, PM3B, PM4A
Description: as §1

[1] = molecular target: LBD of chemoreceptor R2 (WP_136157342.1) (Brenneria roseae, UniProt A0A2U1TV64, H128N/K136R); type: binding; conditions: ITC, 20 °C, R2 LBD; Nb = no binding
Description: (§2) Plasmids for the overexpression of the different proteins were transformed into E. coli BL21(DE3). The resulting strains were grown under continuous stirring (200 rpm) at 30 °C in 2-L Erlenmeyer flasks containing 500 mL of LB medium supplemented with 50 μg/mL kanamycin. At an OD660 of 0.5, protein expression was induced by the addition of 0.1 mM isopropyl β-D-1-thiogalactopyranoside. Growth was continued at 16 °C overnight prior to cell harvesting by centrifugation at 10,000 × g for 20 min. Cell pellets were resuspended in buffer A (Additional file 2: Table S4) and subsequently broken by French press treatment at 62.5 lb/in^2. After centrifugation at 20,000 × g for 30 min, the supernatants were loaded onto 5-mL HisTrap HP columns (Amersham Biosciences) equilibrated with buffer A, and the proteins were eluted with a linear gradient of buffer B (Additional file 2: Table S4). All proteins contain a hexa-histidine tag at the N-terminal extension (Additional file 2: Table S3) and were purified at 4 °C. The purified proteins were dialyzed overnight into the corresponding analysis buffers (Additional file 2: Table S4) for immediate analysis.
All experiments were conducted on a VP microcalorimeter (Microcal, MA) at 15 °C for PacP-LBD and at 20 °C for the remaining proteins. Proteins were dialyzed into the analysis buffers specified in Additional file 2: Table S4, placed into the sample cell and titrated with aliquots of ligand solutions (1 to 10 mM) freshly prepared in dialysis buffer. The mean enthalpies measured from the injection of the ligands into the analysis buffer were subtracted from the raw titration data prior to data analysis with the MicroCal version of ORIGIN. The data were fitted with the “One binding site model” of ORIGIN.

R2 LBD (WP_136157342.1) = test: Thermal shift ligand screening of R2; type: binding, Brenneria roseae; conditions: thermal shift assay, R2, arrays PM1, PM2A, PM3B, PM4A
Description: as §1

[2] = test system: Pectobacterium atrosepticum SCRI1043; test: Growth experiment, sole carbon source; type: cell-based; conditions: PFM9 minimal medium, 5 mM ligand, 30 °C, 48 h
Description: P. atrosepticum SCRI1043 was cultured overnight in phosphate-free M9-based medium (PFM9) supplemented with 20 mM glucose as the carbon source and 500 µM inorganic phosphate as the phosphate source. Cultures were washed and then diluted to an OD600 of 0.02 in PFM9 supplemented with different PacP ligands as the sole carbon or phosphorous source at a final concentration of 5 mM. Subsequently, 200 µL aliquots of these cultures were transferred into microwell plates, which were subsequently grown at 30 °C on a Bioscreen microbiological growth analyzer (Oy Growth Curves Ab Ltd., Helsinki, Finland) for 48 h.

[3] = test system: PacP-LBD mutant (Y86, H100, R105, Y121, K148 and Y167 replaced by alanine); test: ITC binding to PacP-LBD binding site motif mutant; set-up: species or system Pectobacterium atrosepticum; conditions: 36 μM PacP-LBD alanine mutant; 1 mM glycerol 3-phosphate, 2.5 mM glyceraldehyde 3-phosphate
Description: as §2, with “The purified proteins were dialyzed overnight into the corresponding analysis buffers (Additional file 2: Table S4) for immediate analysis.” left out
All experiments were conducted on a VP microcalorimeter (Microcal, MA) at 15 °C for PacP-LBD and at 20 °C for the remaining proteins. […] The mean enthalpies measured from the injection of the ligands into the analysis buffer were subtracted from the raw titration data prior to data analysis with the MicroCal version of ORIGIN. […]

Chain of LBD of chemoreceptor R2 (WP_136157342.1) (A0A2U1TV64 28-178 H128N/K136R): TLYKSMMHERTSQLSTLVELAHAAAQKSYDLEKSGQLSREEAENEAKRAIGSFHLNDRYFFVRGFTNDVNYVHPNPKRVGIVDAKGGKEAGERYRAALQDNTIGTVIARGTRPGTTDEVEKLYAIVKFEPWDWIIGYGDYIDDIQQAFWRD

What does the source list for `O=P(O)(O)OCC(O)CO` (stereo not drawn) [glycerol 3-phosphate]?
Tm change (R4 LBD (WP_158281851.1)): significant increases in the Tm; Tm change (R3 LBD (WP_006464688.1)): significant increases in the Tm; KD [1]: showed binding; Tm change (R2 LBD (WP_136157342.1)): increases in the Tm; growth as sole carbon source [2]: supported growth; binding in microcalorimetric titration [3]: absence of binding
